Laboratory results: US9629848B2, “Compounds that modulate autoimmunity and methods of using the same” (The Regents of the University of Colorado, a body corporate, priority 2011, dated 2017)
Where two headings read alike, the source gives them in different places. Non-standard residues stand in square brackets, D forms with d. Residues, ends and D or L forms follow the SMILES beside them. ξ: configuration not given here. ξY = NC(Cc1ccc(O)cc1)C(=O)O; Nva = CCC[CH](N)C(=O)O

How the values were obtained:
[1] = test system: BDC 12-4.1 anti-B:9-23 T cell hybridoma; assay: T cell stimulation assay, B:9-23 activated TCR BDC 12-4.1; format: cell-based; conditions: Mus musculus, read-out: IC50 for anti-B:9-23 TCRs BDC 12-4.1
[2] = test system: BDC 8-1.1α1 anti-B:9-23 T cell hybridoma; assay: T cell stimulation assay, B:9-23 activated TCR 8-1.1α1; format: cell-based; conditions: Mus musculus, read-out: IC50 for anti-B:9-23 TCRs 8-1.1α1
[3] = test system: human T cell receptor recognizing insulin B:9-23 presented by human DQ8; assay: Inhibition of human T cell receptor recognizing insulin B:9-23 presented by human DQ8; format: cell-based; conditions: for Inhibition of human T cell receptor recognition of insulin B:9-23 presented by human DQ8: screen of DQ8 pocket 1 and pocket 9 compounds; for Concentration at which inhibition is exhibited: DQ8 pocket 1 and pocket 9 compounds studied in detail
Source text: Using a TCR sequence obtained from a T cell line generated from the peripheral blood of a diabetic individual with DQ8 molecule, a TCR was identified that is DQ8 restricted and responds to the insulin B:9-23 peptide.
Molecules predicted to occupy pockets 1 and 9 of the human DQ8 peptide binding groove were identified using in silico molecular docking program. The top scoring compounds for each pocket were screened for their ability to inhibit anti-B:9-23 T cell responses. FIGS. 9A and 9B represent the results of the T cell stimulation assay for compounds occupying pocket 1 and pocket 9 of the human DQ8 peptide binding groove, respectively.

[4] = test system: CD3-stimulated T cell hybridomas; assay: CD3-stimulated T cell hybridomas (specificity control); format: cell-based
Source text: The small molecules p1:4, p1:12 and p1:16 were studied in additional detail.

DQ8 = DQ8 (Homo sapiens, UniProt P01909+P01920, A209T/A45G/C70Q/D89A/DUP78-78/E183D/E77G/F237L/G63E/H199R/I129T/K197E/L178F/L74F/L98V/Q57E/Q76R/S185I/S97I/T217I/T49S/V73L/Y58L); assay: Competitive binding assay B:9-23 to DQ8
[5] = >100 uM means some effect at 100 uM but not 50% inhibition, < means lower concentrations not used

Nc1nc(N)c2nn[nH]c2n1
IC50 ([1]; B:9-23 activated TCR): 24 µM | IC50 ([2]; B:9-23 activated TCR): 25.5 µM

C1CN2CN1CN1CCN(C1)C2
IC50 ([1]; B:9-23 activated TCR): 2.8 µM | IC50 ([2]; B:9-23 activated TCR): 48.8 µM

NC1(N)Sc2nc3ccccc3nc2S1
IC50 ([1]; B:9-23 activated TCR): 14.8 µM | IC50 ([2]; B:9-23 activated TCR): 70.4 µM

O=S1(=O)N2CN3CCN(C2)N1C3
IC50 [1]: 0.5 µM | IC50 [2]: 28.4 µM

5-((2,5-dichloro-4-(hydroxy(oxido)amino)phenyl)diazenyl)-2-imino-4-methyl-2,3-dihydro-1,3-thiazole [p1:21]
Inhibition of human T cell receptor recognition of insulin B:9-23 presented by human DQ8 [3]: able to inhibit

O=Nc1c(S(=O)(=O)O)cc2cc(S(=O)(=O)O)cc(O)c2c1O [p1:4, 4,5-dihydroxy-3-nitroso-2,7-naphthalenedisulfonic acid]
Concentration at which inhibition is exhibited [3]: nanomolar | Inhibition of human T cell receptor recognition of insulin B:9-23 presented by human DQ8 [3]: able to inhibit | Response of CD3-stimulated T cell hybridomas [4]: did not change response

NC(=O)c1cc(Br)cc(C2CCCCC2)c1O [p1:12, 5-bromo-3-cyclohexyl-2-hydroxybenzamide]
Concentration at which inhibition is exhibited [3]: nanomolar | Inhibition of human T cell receptor recognition of insulin B:9-23 presented by human DQ8 [3]: able to inhibit | Response of CD3-stimulated T cell hybridomas [4]: did not change response

O=C(O)COc1ccc(I)cc1I [p1:16, (2,4-diiodophenoxy)acetic acid]
Concentration at which inhibition is exhibited [3]: nanomolar | Inhibition of human T cell receptor recognition of insulin B:9-23 presented by human DQ8 [3]: able to inhibit | Response of CD3-stimulated T cell hybridomas [4]: did not change response

COC(=O)COc1ccc(Cl)cc1C(=O)O [p1:18, 5-chloro-2-(2-methoxy-2-oxoethoxy) benzoic acid]
Inhibition of human T cell receptor recognition of insulin B:9-23 presented by human DQ8 [3]: able to inhibit

COc1ccc2c(n1)Sc1c(N)nc(N)nc1N2 [p1:22, 7-methoxy-10H-pyrido[2,3-b]pyrimido[4,5-e][1,4]thiazine-2,4-diamine]
Inhibition of human T cell receptor recognition of insulin B:9-23 presented by human DQ8 [3]: able to inhibit

Nc1nc(O)c2nc(S)c(C(=O)O)nc2n1 [p1:25, 2-amino-4-hydroxy-6-mercapto-7-pteridine carboxylic acid]
Inhibition of human T cell receptor recognition of insulin B:9-23 presented by human DQ8 [3]: able to inhibit

N=C(N)NC(=N)Nc1ccccc1Cl [p4:1]
IC50 (DQ8): > 100 µM

[H]/N=C(\N/C(N)=N/[H])Nc1ccc([N+](=O)[O-])cc1 [p4:2]
Competitive Binding Assay B:9-23 to DQ8 (IC50) (DQ8; [5]): No inhibition

[H]/N=C(\NCC[N+](C)(C)C)NN([O-])O [p4:3]
Competitive Binding Assay B:9-23 to DQ8 (IC50) (DQ8; [5]): No inhibition

[H]/N=C(/N/N=C/c1ccncc1)NN(O)O [p4:4]
Competitive Binding Assay B:9-23 to DQ8 (IC50) (DQ8): No inhibition

CC1CNC2C(=O)NC(=O)NC2N1 (stereo not drawn) [p4:5]
IC50 (DQ8): > 100 µM

CN(Cc1ccccc1)Cn1ccnc1 [p4:6]
Competitive Binding Assay B:9-23 to DQ8 (IC50) (DQ8; [5]): No inhibition

[H]/N=C(\NCCN(C)C)NN(O)O [p4:7]
IC50 (DQ8): < 100 µM

[H]/N=C(\NCCOC(C)=O)NN(O)O [p4:8]
Competitive Binding Assay B:9-23 to DQ8 (IC50) (DQ8; [5]): No inhibition

NC(=O)N/N=C/C1CNCCN1 (stereo not drawn) [p4:9]
Competitive Binding Assay B:9-23 to DQ8 (IC50) (DQ8; [5]): No inhibition

[H]/N=C(/Nc1ccc(Cl)cc1)NN(O)O [p4:12]
IC50 (DQ8): > 100 µM

c1cc[n+](CC[n+]2ccccc2)cc1 [p4:13]
Competitive Binding Assay B:9-23 to DQ8 (IC50) (DQ8; [5]): No inhibition

NC(Cn1ccc(=O)c(O)c1)C(=O)O (stereo not drawn) [p4:14]
Competitive Binding Assay B:9-23 to DQ8 (IC50) (DQ8; [5]): No inhibition

Clc1ccc(Cl)c(OCC2=NCCN2)c1 [p4:15]
IC50 (DQ8): > 100 µM

[H]/N=C(\NN(O)O)NS(=O)(=O)c1ccccc1 [p4:17]
IC50 (DQ8): > 100 µM

[H]/N=C(\N)NCCC(N)C(=O)O (stereo not drawn) [p4:18]
Competitive Binding Assay B:9-23 to DQ8 (IC50) (DQ8; [5]): No inhibition

[H]/N=C(\NCCCCl)NN(O)O [p4:19]
IC50 (DQ8): > 100 µM

CCCC(N)C(=O)NC(C(=O)O)C(C)C (stereo not drawn) [p4:20] (H-[Nva]-Val-OH; configuration not given here)
IC50 (DQ8): > 100 µM

c1ccc(CCN2CCCCCCCC2)nc1 [p4:21]
Competitive Binding Assay B:9-23 to DQ8 (IC50) (DQ8; [5]): No inhibition

Oc1ncnc2[nH]c(C(O)c3ccccc3)nc12 (stereo not drawn) [p4:22]
IC50 (DQ8): > 100 µM

NC(=O)N/N=C/Cn1cc([N+](=O)[O-])c(=O)[nH]c1=O [p4:23]
IC50 (DQ8): > 100 µM

[H]/N=C(\NCCC#N)NN(O)O [p4:24]
Competitive Binding Assay B:9-23 to DQ8 (IC50) (DQ8; [5]): No inhibition

[H]/N=C(\NCCS(C)(=O)=O)NN(O)O [p4:26]
Competitive Binding Assay B:9-23 to DQ8 (IC50) (DQ8; [5]): No inhibition

[H]/N=C(/NCc1ccccc1)NN(O)O [p4:28]
IC50 (DQ8): > 100 µM

CCC(N)C(O)c1ccccc1 (stereo not drawn) [p4:30]
Competitive Binding Assay B:9-23 to DQ8 (IC50) (DQ8): No inhibition

[H]/N=C(\NCCOC)NN(O)O [p4:31]
IC50 (DQ8): > 100 µM

CC1C(c2ccccc2)OCN1C (stereo not drawn) [p4:32]
IC50 (DQ8): < 100 µM

OC1CN(Cc2ccccc2)CC1O (stereo not drawn) [p4:33]
Competitive Binding Assay B:9-23 to DQ8 (IC50) (DQ8; [5]): No inhibition

NC(CCCC(N)C(=O)O)C(=O)O (stereo not drawn) [p4:34]
IC50 (DQ8): > 100 µM

CCCCN(C)C12CN3CN(CN(C3)C1)C2 [p4:35]
IC50 (DQ8): > 100 µM

C[N+]1(C/C=C/Cl)CN2CNCN(C2)C1 (stereo not drawn) [p6:2]
Competitive Binding Assay B:9-23 to DQ8 (IC50) (DQ8; [5]): No inhibition

NC1CC2NC3CCCCC3NC2CC1N (stereo not drawn) [p6:7]
Competitive Binding Assay B:9-23 to DQ8 (IC50) (DQ8; [5]): No inhibition

C[N+]1(C/C=C/CCl)CN2CNCN(C2)C1 (stereo not drawn) [p6:8]
Competitive Binding Assay B:9-23 to DQ8 (IC50) (DQ8; [5]): No inhibition

CN1C(=O)C(N)C(N)N(C)C1=O (stereo not drawn) [p6:16]
Competitive Binding Assay B:9-23 to DQ8 (IC50) (DQ8; [5]): No inhibition

NCc1c(Cl)c(Cl)c(Cl)c(CN)c1Cl [p6:19]
IC50 (DQ8): > 100 µM

COC(=O)C(C=C(Cl)Cl)N1CCNCC1 (stereo not drawn) [p6:23]
IC50 (DQ8): > 100 µM

NCC(=O)NC(Cc1ccc(O)cc1)C(=O)O (stereo not drawn) [p6:24] (H-Gly-[ξY]-OH)
IC50 (DQ8): > 100 µM

C1CCCNCCNCCNCC1 [p6:27]
Competitive Binding Assay B:9-23 to DQ8 (IC50) (DQ8; [5]): No inhibition

CC1(CO)COC(=O)C(C)(C2(C)NC(C)(CO)COC2=O)N1 (stereo not drawn) [p6:28]
Competitive Binding Assay B:9-23 to DQ8 (IC50) (DQ8; [5]): No inhibition

NC1(COS(=O)(=O)O)CCN1 (stereo not drawn) [p6:30]
Competitive Binding Assay B:9-23 to DQ8 (IC50) (DQ8; [5]): No inhibition

O=C1CN(C2CCCCC2N2CC(=O)NC(=O)C2)CC(=O)N1 (stereo not drawn) [p6:31]
Competitive Binding Assay B:9-23 to DQ8 (IC50) (DQ8; [5]): No inhibition

C=CC(OC(=O)CC)(c1ccccc1)C1CCNCC1 (stereo not drawn) [p6:32]
Competitive Binding Assay B:9-23 to DQ8 (IC50) (DQ8): No inhibition

N=C(N)c1ccc(/C=C/c2ccc(C(=N)N)cc2)cc1 [p6:33]
Competitive Binding Assay B:9-23 to DQ8 (IC50) (DQ8; [5]): No inhibition

CC(=O)N1C(=O)C2(NCCCN2)c2ccccc21 [p6:34]
IC50 (DQ8): < 100 µM

O=P(O)(O)CCCP(=O)(O)O [p9:1, 3-phosphonopropylphosphonic acid]
Inhibition of human T cell receptor recognition of insulin B:9-23 presented by human DQ8 [3]: able to inhibit

O=C(O)COC1C=CC(=O)N(CC(=O)O)N1 (stereo not drawn) [p9:5, 3-(carboxymethoxy)-6-oxo-3,6-dihydro-1(2H)-pyridazinyl acetic acid]
Concentration at which inhibition is exhibited [3]: nanomolar | Inhibition of human T cell receptor recognition of insulin B:9-23 presented by human DQ8 [3]: able to inhibit

O=S(=O)(O)C(O)CC(O)S(=O)(=O)O (stereo not drawn) [p9:10, 1,3-dihydroxy-1,3-propanedisulfonic acid]
Inhibition of human T cell receptor recognition of insulin B:9-23 presented by human DQ8 [3]: able to inhibit

O=C(O)C(S)CC(S)C(=O)O (stereo not drawn) [p9:17, 3-deoxy-2,4-dithiopentaric acid]
Inhibition of human T cell receptor recognition of insulin B:9-23 presented by human DQ8 [3]: able to inhibit

O=S(=O)(O)CCc1nnn[nH]1 [p9:23, 2-(1H-tetraazol-5-yl)ethanesulfonic acid]
Concentration at which inhibition is exhibited [3]: nanomolar | Inhibition of human T cell receptor recognition of insulin B:9-23 presented by human DQ8 [3]: able to inhibit

CC=C1C(C(=O)O)C1C(=O)O (stereo not drawn) [p9:35, 3-ethylidene-1,2-cyclopropanedicarboxylic acid]
Inhibition of human T cell receptor recognition of insulin B:9-23 presented by human DQ8 [3]: able to inhibit
